Read-outs that look alike come from different tables or passages of the source.
What was measured:
[1] = system: patients with secondary insomnia; assay: Randomized, controlled, cross-over clinical trial: questionnaires and subjective sleep perception; assay type: in vivo; conditions: for Sleep latency / Total sleep time: subjective
Description: (§1) Based on the foregoing, a double-blind clinical trial was conducted to evaluate the impact of the medication on sleep quality and total sleep time, as well as to quantify the reduction in sleep latency in patients diagnosed with comorbid insomnia, through actigraphy and assessment scales.
(§2) The objective of the clinical trial was to evaluate the impact of the medication on sleep quality and total sleep time, as well as to quantify the reduction in sleep latency in patients diagnosed with comorbid insomnia, through actigraphy and assessment scales. The study was conducted with 30 patients.
TABLE 1: RESULTS OF THE ANALYSIS OF THE QUESTIONNAIRES AND OF THE SUBJECTIVE SLEEP PERCEPTION.

[2] = system: healthy volunteers; conditions: daily doses of 50 and 100 mg; cited from earlier work
[3] = in water; cited from earlier work
[4] = system: patients with Alzheimer's disease; conditions: 50 mg/day; cited from earlier work
[5] = system: postmenopausal women; conditions: trazodone 50-100 mg/day; cited from earlier work
[6] = cited from earlier work
[7] = 50 mg/day; double-blind controlled study; cited from earlier work
[8] = system: pregnant women; conditions: 50 mg/day; 67 pregnant women; third trimester of pregnancy; cited from earlier work
[9] = system: patients with secondary insomnia; assay: Randomized, controlled, cross-over clinical trial: actigraphy analysis; assay type: in vivo
Description: as §1, §2
Of the 29 patients, 24 correctly completed the proposed actigraphy usage period. TABLE 2: ACTIGRAPHY ANALYSIS RESULTS.

SMILES: O=c1n(CCCN2CCN(c3cccc(Cl)c3)CC2)nc2ccccn12 [Trazodone]
- Hamilton Depression Scale ([1]; 50 mg, Consultation 1): 16.31±8.60@#
- Insomnia Severity Scale ([1]; 50 mg, Consultation 1): 19.88±4.04@#
- Nights with awakenings/week ([1]; 50 mg, Consultation 1): 3.00±0.00@
- Pittsburgh Sleep Quality Questionnaire ([1]; 50 mg, Consultation 1): 14.13±3.11@#
- Hamilton Depression Scale ([1]; 50 mg, Consultation 2): 11.88±6.06@
- Insomnia Severity Scale ([1]; 50 mg, Consultation 2): 17.69±6.18&*
- Nights with awakenings/week ([1]; 50 mg, Consultation 2): 2.40±1.05
- Pittsburgh Sleep Quality Questionnaire ([1]; 50 mg, Consultation 2): 11.19±2.90
- Hamilton Depression Scale ([1]; 50 mg, Consultation 3): 11.13±6.98
- Insomnia Severity Scale ([1]; 50 mg, Consultation 3): 11.14±7.24#&
- Nights with awakenings/week ([1]; 50 mg, Consultation 3): 2.00±1.17
- Hamilton Depression Scale ([1]; 50 mg, Consultation 4): 7,875±4.28
- Insomnia Severity Scale ([1]; 50 mg, Consultation 4): 7.50±4.48@#
- Nights with awakenings/week ([1]; 50 mg, Consultation 4): 1.06±1.39@#
- Pittsburgh Sleep Quality Questionnaire ([1]; 50 mg, Consultation 4): 9.81±3.50@
- Hamilton Depression Scale ([1]; 75 mg, Consultation 1): 18.31±11.41@
- Insomnia Severity Scale ([1]; 75 mg, Consultation 1): 21.08±3.84@
- Nights with awakenings/week ([1]; 75 mg, Consultation 1): 2.84±0.55
- Pittsburgh Sleep Quality Questionnaire ([1]; 75 mg, Consultation 1): 13.54±3.43@
- Hamilton Depression Scale ([1]; 75 mg, Consultation 2): 14.85±6.65
- Insomnia Severity Scale ([1]; 75 mg, Consultation 2): 19.75±3.84
- Nights with awakenings/week ([1]; 75 mg, Consultation 2): 3.00±0.00
- Pittsburgh Sleep Quality Questionnaire ([1]; 75 mg, Consultation 2): 12.77±2.20
- Hamilton Depression Scale ([1]; 75 mg, Consultation 3): 12.5±6.81
- Insomnia Severity Scale ([1]; 75 mg, Consultation 3): 16.69±8.34
- Nights with awakenings/week ([1]; 75 mg, Consultation 3): 2.58±0.90
- Pittsburgh Sleep Quality Questionnaire ([1]; 75 mg, Consultation 3): 13.58±3.08
- Hamilton Depression Scale ([1]; 75 mg, Consultation 4): 8.08±3.57@#
- Insomnia Severity Scale ([1]; 75 mg, Consultation 4): 7,33±5,61@#
- Nights with awakenings/week ([1]; 75 mg, Consultation 4): 1.38±1.55
- Pittsburgh Sleep Quality Questionnaire ([1]; 75 mg, Consultation 4): 9.91±3.26@#
- Hamilton Depression Scale ([1]; no dose stated, Consultation 1): 17,21±9,82@#
- Insomnia Severity Scale ([1]; no dose stated, Consultation 1): 20.41±3.93@#
- Nights with awakenings/week ([1]; no dose stated, Consultation 1): 2.93±0.37@
- Pittsburgh Sleep Quality Questionnaire ([1]; no dose stated, Consultation 1): 13.86±3.21@
- Hamilton Depression Scale ([1]; no dose stated, Consultation 2): 13.21±6.40&*
- Insomnia Severity Scale ([1]; no dose stated, Consultation 2): 18.57±5.32&*
- Nights with awakenings/week ([1]; no dose stated, Consultation 2): 2.67±0.82
- Pittsburgh Sleep Quality Questionnaire ([1]; no dose stated, Consultation 2): 11.9±2.69
- Hamilton Depression Scale ([1]; no dose stated, Consultation 3): 11,74±6,80#&
- Insomnia Severity Scale ([1]; no dose stated, Consultation 3): 13.81±8.14#&
- Nights with awakenings/week ([1]; no dose stated, Consultation 3): 2.26±1.08
- Pittsburgh Sleep Quality Questionnaire ([1]; no dose stated, Consultation 3): 12.59±3.68
- Hamilton Depression Scale ([1]; no dose stated, Consultation 4): 7.96±3.93@*
- Insomnia Severity Scale ([1]; no dose stated, Consultation 4): 7.42±4.90@#
- Nights with awakenings/week ([1]; no dose stated, Consultation 4): 1.20±1.45@#
- Pittsburgh Sleep Quality Questionnaire ([1]; no dose stated, Consultation 4): 9.85±3.34@#
- Sleep latency ([1]; 50mg, Consultation 1): 50.5 ± 40.46 min
- Total sleep time ([1]; 50mg, Consultation 1): 273.80 ± 95.42 min
- Sleep latency ([1]; 50mg, Consultation 2): 37.19 ± 20.00 min
- Total sleep time ([1]; 50mg, Consultation 2): 307.50 ± 75.50 min
- Sleep latency ([1]; 50mg, Consultation 3): 42,56±47,20 min.
- Total sleep time ([1]; 50mg, Consultation 3): 348.80 ± 103.30 min
- Sleep latency ([1]; 50mg, Consultation 4): 26.31 ± 25.20 min
- Sleep latency ([1]; 75mg, Consultation 1): 93.08 ± 99.11 min
- Total sleep time ([1]; 75mg, Consultation 1): 281.50 ± 128.20 min
- Sleep latency ([1]; 75mg, Consultation 2): 69.69 ± 43.86 min
- Total sleep time ([1]; 75mg, Consultation 2): 272.30 ± 87.00 min
- Sleep latency ([1]; 75mg, Consultation 3): 63.08 ± 53.17 min
- Total sleep time ([1]; 75mg, Consultation 3): 290.80 ± 72.85 min
- Sleep latency ([1]; 75mg, Consultation 4): 33.85 ± 25.67 min
- Total sleep time ([1]; 75mg, Consultation 4): 378.50 ± 89.61 min
- Sleep latency ([1]; no dose stated, Consultation 1): 69,59±74,51@ min.
- Total sleep time ([1]; no dose stated, Consultation 1): 277.20±109.20@ min.
- Sleep latency ([1]; no dose stated, Consultation 2): 51.76 ± 36.18 min
- Total sleep time ([1]; no dose stated, Consultation 2): 291.70 ± 81.33 min
- Sleep latency ([1]; no dose stated, Consultation 3): 51.76 ± 50.13 min
- Total sleep time ([1]; no dose stated, Consultation 3): 322.80 ± 94.07 min
- Sleep latency ([1]; no dose stated, Consultation 4): 29,69±25,24@# min.
- Total sleep time ([1]; no dose stated, Consultation 4): 341.80±110.00@ min.
- slow waves during sleep [2]: increased
- pKa [3]: 6.74
- treatment of insomnia [4]: safe and effective
- sleep quality and sexual dysfunction [5]: improved
- solubility ([6]; above its pKa, neutral and basic conditions): very low
- solubility ([6]; acidic medium, pH of the medium below its pKa): highly soluble
- maintaining sleep [7]: effective
- Sedative effects for the treatment of insomnia [8]: efficacy
- Awakenings ([9]; 50mg, Actigraphy 1): 12.97±3.85@
- Sleep latency ([9]; 50mg, Actigraphy 1): 6.13 ± 5.56 min
- Total sleep time ([9]; 50mg, Actigraphy 1): 50mg 461.80±106.60 min.
- WASO ([9]; 50mg, Actigraphy 1): 84.20 ± 26.09 min
- Awakenings ([9]; 50mg, Actigraphy 2): 10.68±3.44
- Sleep latency ([9]; 50mg, Actigraphy 2): 7.16 ± 7.48 min
- Total sleep time ([9]; 50mg, Actigraphy 2): 479.90 ± 95.25 min
- WASO ([9]; 50mg, Actigraphy 2): 75.38 ± 29.34 min
- Awakenings ([9]; 50mg, Actigraphy 3): 11.35±3.59@
- Sleep latency ([9]; 50mg, Actigraphy 3): 4.40 ± 4.40 min
- Total sleep time ([9]; 50mg, Actigraphy 3): 476.00 ± 91.94 min
- WASO ([9]; 50mg, Actigraphy 3): 73 ± 26.45 min
- Awakenings ([9]; 75mg, Actigraphy 1): 12.64±2.57
- Sleep latency ([9]; 75mg, Actigraphy 1): 6.77 ± 5.96 min
- Total sleep time ([9]; 75mg, Actigraphy 1): 75 mg 486.00±151.70 min.
- WASO ([9]; 75mg, Actigraphy 1): 82.33 ± 20.21 min
- Awakenings ([9]; 75mg, Actigraphy 2): 11.37±1.56
- Sleep latency ([9]; 75mg, Actigraphy 2): 5.28 ± 4.71 min
- Total sleep time ([9]; 75mg, Actigraphy 2): 514.10 ± 166.50 min
- WASO ([9]; 75mg, Actigraphy 2): 88.29 ± 20.62 min
- Awakenings ([9]; 75mg, Actigraphy 3): 11.71±2.54£2
- Sleep latency ([9]; 75mg, Actigraphy 3): 7.33 ± 7.90 min
- Total sleep time ([9]; 75mg, Actigraphy 3): 498.60 ± 126.30 min
- WASO ([9]; 75mg, Actigraphy 3): 83.44 ± 32.30 min
- Awakenings ([9]; no dose stated, Actigraphy 1): 12.84±3.37@
- Sleep latency ([9]; no dose stated, Actigraphy 1): 6.37 ± 5.60 min
- Total sleep time ([9]; no dose stated, Actigraphy 1): 470.90 ± 122.70 min
- WASO ([9]; no dose stated, Actigraphy 1): 84.20 ± 26.09 min
- Awakenings ([9]; no dose stated, Actigraphy 2): 10.92±2.89
- Sleep latency ([9]; no dose stated, Actigraphy 2): 6.47 ± 6.51 min
- Total sleep time ([9]; no dose stated, Actigraphy 2): 491.90 ± 121.50 min
- Awakenings ([9]; no dose stated, Actigraphy 3): 11.49±3.186@#
- Sleep latency ([9]; no dose stated, Actigraphy 3): 5.50 ± 5.97 min
- Total sleep time ([9]; no dose stated, Actigraphy 3): 484.50 ± 104.00 min
- WASO ([9]; no dose stated, Actigraphy 3): 73.00 ± 26.45 min

SMILES: CN1CCN(C(=O)OC2c3nccnc3C(=O)N2c2ccc(Cl)cn2)CC1 (stereo not drawn) [zopiclone]
- sleep quality and sexual dysfunction [5]: improved

— patent EP4799620A1, “ORAL PHARMACEUTICAL FORM FOR BIPHASIC RELEASE, COMPOSED OF A MULTIP[…], PROCESS FOR PREPARING SAME AND […] USE OF ORAL FORM” (Prati, Donaduzzi & Cia LTDA, priority 2023, dated 2025)
